Source: patent US20230416329A1, “A PEPTIDE WITH DISULFIDE BONDS AND INHIBITORY ACTIVITY AGAINST SERINE PROTEASES, DERIVED HYBRID PEPTIDES THEREOF, AND USES THEREOF” (INSTITUTE OF MATERIA MEDICA , CHINESE ACADEMY OF MEDICAL …, priority 2020, published 2023)
pIC50, pKi: −log10 of the molar value. Values belong to the compound of their own block, whether it stands above or below them. Bridge positions count the residues as written; N and C are the ends. Peptide text beside a SMILES is read from it.

Target: α-chymotrypsin (Bos taurus, UniProt P00766)
Test: Chymotrypsin inhibitory activity of peptides (AAPFpNA hydrolysis; IC50, Ki, residual activity)
Format: biochemical
Conditions: for pKi: Ki=IC50/(1+S/Km), Km 0.38 mM; for pIC50: chymotrypsin 30 nM, AAPFpNA 0.5 mM
Description: The inhibition constants of various synthetic active peptide inhibitors (molecular scaffolds) against seine proteases were measured. The substrates N-succinyl-Ala-Ala-Pro-Phe-p-nitroaniline (AAPFpNA), Nα—Benzoyl-L-arginine-4-nitroaniline hydrochloride (BApNA) and N-succinyl-[…] (AAApNA) are used in competitive binding reaction to determine the inhibitory activities against α-chymotrypsin, bovine trypsin, and porcine pancreatic elastase, respectively. Experiments for α-chymotrypsin and bovine trypsin inhibition were measured in 20 mM CaCl2, 50 mM Tris-HCl buffer (pH 7.8), and that for porcine elastase inhibition was measured in 50 mM Tris-HCl buffer (pH 8.0). The concentration of the peptide was measured using optical density (OD) at 280 nm. The Michaelis constant (Km) of the enzyme hydrolysis substrate is calculated from the initial rate of substrate hydrolysis at 405 nm. The absorbance value of the substrate was measured at 405 nm after complete hydrolysis. All data were processed using nonlinear regression.
• (1) Added a total 190 μL of reaction buffer (20 mM CaCl2, 50 mM Tris-HCl (pH 7.8)) into the 96 well plate, followed by preheating at 37° C. for 15 min. Then added 2 μL of different concentrations of substrates (p-Nitroanilide, pNA, 0.5% in DMSO), and mixed by centrifugation at 500 rpm for 1 min. Finally, the plate was incubated at 37° C. for 20 min, and the absorbance value at 405 nm was measured. In the 200 μL of reaction system, the final concentrations of pNA were 0, 0.025, 0.05, 0.075, 0.1, 0.125, 0.15, 0.25, and 0.3 mM, respectively. Make three repetitions for each concentration and plot the OD405 m value with pNA concentration to obtain the standard curve. • (2) Added a total 190 μL of reaction buffer (20 mM CaCl2, 50 mM Tris-HCl (pH 7.8)) and 8 μL of 0.75 μM chymotrypsin into the 96 well plate, followed by preheating at 37° C. for 5 min. Then added 2 μL of different concentrations of substrates (AAPFpNA, dissolved in DMSO), and mixed by centrifugation at 500 rpm for 1 min. Finally, the plate was incubated at 37° C. for 20 min, and the absorbance value at 405 nm was measured. In the 200 μL of reaction system, the final concentrations of AAPFpNA were 0, 0.125, 0.25, 0.285, 0.33, 0.4, and 0.5 mM, respectively. Make three repetitions for each concentration and plot the OD405 nm value with time to obtain the corresponding curve. Divide the slope of the curve by the slope of the standard curve and the enzyme concentration to obtain the initial velocity V0 (mM/(min*mM protein). Plot the initial velocity V0 with the concentration of substrate AAPFpNA using Prism software, and the Michaelis constant Km value of chymotrypsin hydrolyzing AAPFpNA was obtained.
• (1) Added a total 190 μL of reaction buffer (20 mM CaCl2, 50 mM Tris-HCl (pH 7.8)), different concentrations of anti-chymorypsin peptides (CHs) into the pre-cold 96 well plate, followed by preheating at 37° C. for 5 min and centrifugated at 500 rpm for 1 min and allowed to stand for 4 minutes. Then added 8 μL of 750 nM chymotrypsin and incubated at 37° C. for 10 min, and centrifugated at 500 rpm for 1 min and allowed to stand for 9 minutes. Finally, added 2 μL of 50 mM AAPFpNA, and mixed by centrifugation at 500 rpm for 1 min. The plate was incubated at 37° C. for 90 min, and the absorbance value at 405 nm was measured. Three repetitions were made, and only reaction buffer and substrate were added in the blank control as the minimum absorption value (Min OD405 nm); Only reaction buffer, enzyme and substrate were added in the negative control as the maximum absorption value (Max OD405). • (2) In the 200 μL of reaction system, the final concentrations of chymotrypsin and AAPFpNA were 30 nM and 0.5 mM, respectively. • (3) Data statistics
Residual activity of enzyme (%)=(1−(Max OD405 nm−Sample OD405 nm)/(Max OD405 nm−Min OD405 nm))*100 […]

pKi: 6.34
pIC50: 5.97
Residual activity of chymotrypsin (peptide 0.001 μM): 103.5 ± 1.6%
Residual activity of chymotrypsin (peptide 0.01 μM): 104.8 ± 7.2%
Residual activity of chymotrypsin (peptide 0.1 μM): 93.6 ± 5.5%
Residual activity of chymotrypsin (peptide 1 μM): 55.0 ± 3.3%
Residual activity of chymotrypsin (peptide 3 μM): 26.4 ± 1.1%
Residual activity of chymotrypsin (peptide 10 μM): 10.6 ± 0.2%
Residual activity of chymotrypsin (peptide 100 μM): 1.2 ± 0.1%
Residual activity of chymotrypsin (peptide 300 μM): 0.3 ± 0.1%
Residual activity of chymotrypsin (peptide 1000 μM): 0.5 ± 0.1%
SMILES: CC[C@H](C)[C@@H]1NC(=O)[C@H](CO)NC(=O)[C@H](Cc2ccccc2)NC(=O)[C@H]([C@@H](C)O)NC(=O)[C@@H](NC(=O)[C@@H](N)CC(C)C)CSSC[C@@H](C(=O)N[C@@H](Cc2ccc(O)cc2)C(=O)NCC(=O)O)NC(=O)[C@H](CCC(N)=O)NC(=O)[C@@H]2CCCN2C(=O)[C@@H]2CCCN2C1=O [CH1] (H-LCTFSIPPQCYG-OH; disulfide 2-10; N-terminus and C-terminus assumed)

pIC50: < 4.30
SMILES: CC[C@H](C)[C@@H]1NC(=O)[C@H](CO)NC(=O)[C@H](Cc2ccccc2)NC(=O)[C@H](C)NC(=O)[C@H](CC(C)C)NC(=O)[C@@H](N)CSSC[C@@H](C(=O)N[C@@H](Cc2ccc(O)cc2)C(=O)NCC(=O)O)NC(=O)[C@H](CCC(N)=O)NC(=O)[C@@H]2CCCN2C(=O)[C@@H]2CCCN2C1=O [CH2] (H-CLAFSIPPQCYG-OH; disulfide 1-10; N-terminus and C-terminus assumed)

pIC50: < 4.30
SMILES: CC[C@H](C)[C@@H]1NC(=O)[C@H](CO)NC(=O)[C@H](Cc2ccccc2)NC(=O)[C@H](C)NC(=O)[C@H](CC(C)C)NC(=O)CNC(=O)[C@@H](N)CSSC[C@@H](C(=O)N[C@@H](Cc2ccc(O)cc2)C(=O)NCC(=O)O)NC(=O)[C@H](CCC(N)=O)NC(=O)[C@@H]2CCCN2C(=O)[C@@H]2CCCN2C1=O [CH3] (H-CGLAFSIPPQCYG-OH; disulfide 1-11; N-terminus and C-terminus assumed)

pKi: 6.26
pIC50: 5.89
Residual activity of chymotrypsin (peptide 0.001 μM): 103.2 ± 0.9%
Residual activity of chymotrypsin (peptide 0.01 μM): 101.8 ± 0.8%
Residual activity of chymotrypsin (peptide 0.1 μM): 100.7 ± 2.0%
Residual activity of chymotrypsin (peptide 0.3 μM): 86.7 ± 1.4%
Residual activity of chymotrypsin (peptide 0.6 μM): 70.4 ± 2.8%
Residual activity of chymotrypsin (peptide 2.5 μM): 34.6 ± 4.3%
Residual activity of chymotrypsin (peptide 7.5 μM): 13.8 ± 0.6%
Residual activity of chymotrypsin (peptide 10 μM): 9.3 ± 1.1%
Residual activity of chymotrypsin (peptide 100 μM): 0.7 ± 0.1%
Residual activity of chymotrypsin (peptide 1000 μM): 0.2 ± 0.0%
SMILES: CC[C@H](C)[C@@H]1NC(=O)[C@H](CO)NC(=O)[C@H](Cc2ccc(O)cc2)NC(=O)[C@H]([C@@H](C)O)NC(=O)[C@@H](NC(=O)[C@@H](N)CO)CSSC[C@@H](C(=O)N[C@@H](Cc2ccc(O)cc2)C(=O)NCC(=O)O)NC(=O)[C@H](CCC(N)=O)NC(=O)[C@@H]2CCCN2C(=O)[C@@H]2CCCN2C1=O [CH4] (H-SCTYSIPPQCYG-OH; disulfide 2-10; N-terminus and C-terminus assumed)

pIC50: < 4.30
SMILES: CC[C@H](C)[C@@H]1NC(=O)[C@H](CO)NC(=O)[C@H](Cc2ccc(O)cc2)NC(=O)[C@H]([C@@H](C)O)NC(=O)CNC(=O)[C@H](CO)NC(=O)CNC(=O)[C@@H](N)CSSC[C@@H](C(=O)N[C@@H](Cc2ccc(O)cc2)C(=O)NCC(=O)O)NC(=O)[C@H](CCC(N)=O)NC(=O)[C@@H]2CCCN2C(=O)[C@@H]2CCCN2C1=O [CH6] (H-CGSGTYSIPPQCYG-OH; disulfide 1-12; N-terminus and C-terminus assumed)

pKi: 5.02
pIC50: 4.65
Residual activity of chymotrypsin (peptide 0.01 μM): 100.9 ± 1.3%
Residual activity of chymotrypsin (peptide 0.1 μM): 98.8 ± 3.9%
Residual activity of chymotrypsin (peptide 1 μM): 101.7 ± 6.3%
Residual activity of chymotrypsin (peptide 10 μM): 77.7 ± 2.0%
Residual activity of chymotrypsin (peptide 25 μM): 46.0 ± 1.0%
Residual activity of chymotrypsin (peptide 50 μM): 25.8 ± 0.9%
Residual activity of chymotrypsin (peptide 100 μM): 14.1 ± 0.9%
Residual activity of chymotrypsin (peptide 300 μM): 4.1 ± 0.1%
Residual activity of chymotrypsin (peptide 1000 μM): 1.2 ± 0.1%
SMILES: CC[C@H](C)[C@@H]1NC(=O)[C@H](CO)NC(=O)[C@H](Cc2ccccc2)NC(=O)[C@H]([C@@H](C)O)NC(=O)CNC(=O)[C@H](Cc2ccccc2)NC(=O)CNC(=O)[C@@H](N)CSSC[C@@H](C(=O)N[C@@H](Cc2ccc(O)cc2)C(=O)NCC(=O)O)NC(=O)[C@H](CCC(N)=O)NC(=O)[C@@H]2CCCN2C(=O)[C@@H]2CCCN2C1=O [CH7] (H-CGFGTFSIPPQCYG-OH; disulfide 1-12; N-terminus and C-terminus assumed)
inhibitory activity against chymotrypsin (in words): certain inhibitory activity against chymotrypsin

pIC50: < 4.30
SMILES: CC[C@H](C)[C@@H]1NC(=O)[C@H](CO)NC(=O)[C@H](Cc2ccc(O)cc2)NC(=O)[C@H]([C@@H](C)O)NC(=O)[C@H](C)NC(=O)[C@H](CO)NC(=O)[C@@H](N)CSSC[C@@H](C(=O)N[C@@H](Cc2ccc(O)cc2)C(=O)O)NC(=O)[C@H](CCC(N)=O)NC(=O)[C@@H]2CCCN2C(=O)[C@@H]2CCCN2C1=O [CH8] (H-CSATYSIPPQCY-OH; disulfide 1-11; N-terminus and C-terminus assumed)

pKi: 4.91
pIC50: 4.55
SMILES: CC[C@H](C)[C@@H]1NC(=O)[C@H](CO)NC(=O)[C@H](Cc2ccc(O)cc2)NC(=O)[C@H]([C@@H](C)O)NC(=O)[C@H](C)NC(=O)[C@H](CO)NC(=O)CNC(=O)[C@@H](N)CSSC[C@@H](C(=O)N[C@@H](Cc2ccc(O)cc2)C(=O)O)NC(=O)[C@H](CCC(N)=O)NC(=O)[C@@H]2CCCN2C(=O)[C@@H]2CCCN2C1=O [CH9] (H-CGSATYSIPPQCY-OH; disulfide 1-12; N-terminus and C-terminus assumed)
inhibitory activity against chymotrypsin (in words): certain inhibitory activity against chymotrypsin

pIC50: < 4.30
SMILES: CC[C@H](C)[C@@H]1NC(=O)[C@H](CO)NC(=O)[C@H](Cc2ccccc2)NC(=O)[C@H]([C@@H](C)O)NC(=O)[C@H](C)NC(=O)[C@H](Cc2ccccc2)NC(=O)CNC(=O)[C@@H](N)CSSC[C@@H](C(=O)N[C@@H](Cc2ccc(O)cc2)C(=O)NCC(=O)O)NC(=O)[C@H](CCC(N)=O)NC(=O)[C@@H]2CCCN2C(=O)[C@@H]2CCCN2C1=O [CH12] (H-CGFATFSIPPQCYG-OH; disulfide 1-12)

inhibitory activity against chymotrypsin (in words): good inhibitory activity
pKi: 5.61
pIC50: 5.25
SMILES: CC[C@H](C)[C@@H]1NC(=O)[C@H](CO)NC(=O)[C@H](Cc2ccccc2)NC(=O)[C@H]([C@@H](C)O)NC(=O)[C@H](C)NC(=O)[C@H](CO)NC(=O)CNC(=O)[C@@H](N)CSSC[C@@H](C(=O)N[C@@H](Cc2ccc(O)cc2)C(=O)NCC(=O)O)NC(=O)[C@H](CCC(N)=O)NC(=O)[C@@H]2CCCN2C(=O)[C@@H]2CCCN2C1=O [CH13] (H-CGSATFSIPPQCYG-OH; disulfide 1-12; N-terminus and C-terminus assumed)

pIC50: < 4.30
SMILES: CC[C@H](C)[C@@H]1NC(=O)[C@H](CO)NC(=O)[C@H](Cc2ccc(O)cc2)NC(=O)[C@H]([C@@H](C)O)NC(=O)[C@H](C)NC(=O)[C@H](Cc2ccccc2)NC(=O)CNC(=O)[C@@H](N)CSSC[C@@H](C(=O)N[C@@H](Cc2ccc(O)cc2)C(=O)NCC(=O)O)NC(=O)[C@H](CCC(N)=O)NC(=O)[C@@H]2CCCN2C(=O)[C@@H]2CCCN2C1=O [CH14] (H-CGFATYSIPPQCYG-OH; disulfide 1-12)
